Assay results published in patent US9029391B2 (priority 2011, dated 2015).

Test system: HIV
Assay: MT4 Assay (anti-HIV activity)
Format: cell-based
Details: Human immunodeficiency virus 1, 96 h, read-out: HIV MT4 Assay IC50, HTLV-1 transformed cell line MT-4, cell titer glo, 10 point dose response curve
How it was run: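 MT-4 cells (HTLV-1 transformed) were used for antiviral activity and cytotoxicity, run in parallel, with luminescence read by CellTiter-Glo 96 hours later. Percent inhibition was expressed against the no-compound control. IC50s came from 10-point curves of 3-4-fold serial dilutions spanning >1000-fold.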

SMILES	IC50
Cn1c(C(OC(C)(C)C)C(=O)O)c(-c2ccc(F)cc2F)c2ccccc2c1=O (stereo not drawn) [Example 46, 2-(tert-butoxy)-2-[4-(2,4-difluorophenyl)-2-methyl-1-oxo-1,2-dihydroisoquinolin-3-yl]acetic acid]	1.57 µM
CCc1ccc(-c2c(C(OC(C)(C)C)C(=O)O)n(C)c(=O)c3ccccc23)cc1 (stereo not drawn) [Example 47, 2-(tert-butoxy)-2-[4-(4-ethylphenyl)-2-methyl-1-oxo-1,2-dihydroisoquinolin-3-yl]acetic acid]	1.85 µM
Cn1c(C(OC(C)(C)C)C(=O)O)c(-c2ccncc2)c2ccccc2c1=O (stereo not drawn) [Example 48, 2-(tert-butoxy)-2-[2-methyl-1-oxo-4-(pyridin-4-yl)-1,2-dihydroisoquinolin-3-yl]acetic acid]	50 µM
COCc1ccc(-c2c(C(OC(C)(C)C)C(=O)O)n(C)c(=O)c3ccccc23)cc1 (stereo not drawn) [Example 49, 2-(tert-butoxy)-2-{4-[4-(methoxymethyl)phenyl]-2-methyl-1-oxo-1,2-dihydroisoquinolin-3-yl}acetic acid]	15.6 µM
COc1ccc(-c2c(C(OC(C)(C)C)C(=O)O)n(C)c(=O)c3ccccc23)cc1OC (stereo not drawn) [Example 50, 2-(tert-butoxy)-2-[4-(3,4-dimethoxyphenyl)-2-methyl-1-oxo-1,2-dihydroisoquinolin-3-yl]acetic acid]	25.6 µM
Cn1c(C(OC(C)(C)C)C(=O)O)c(-c2ccc3c(c2)OCO3)c2ccccc2c1=O (stereo not drawn) [Example 51, 2-[4-(2H-1,3-benzodioxol-5-yl)-2-methyl-1-oxo-1,2-dihydroisoquinolin-3-yl]-2-(tert-butoxy)acetic acid]	5.3 µM
COc1cc(-c2c(C(OC(C)(C)C)C(=O)O)n(C)c(=O)c3ccccc23)ccc1C (stereo not drawn) [Example 52, 2-(tert-butoxy)-2-[4-(3-methoxy-4-methylphenyl)-2-methyl-1-oxo-1,2-dihydroisoquinolin-3-yl]acetic acid]	3.12 µM
Cn1c(C(OC(C)(C)C)C(=O)O)c(-c2ccc3c(c2)OCCO3)c2ccccc2c1=O (stereo not drawn) [Example 53, 2-(tert-butoxy)-2-[4-(2,3-dihydro-1,4-benzodioxin-6-yl)-2-methyl-1-oxo-1,2-dihydroisoquinolin-3-yl]acetic acid]	2.46 µM
COc1ccc(-c2c(C(OC(C)(C)C)C(=O)O)n(C)c(=O)c3ccccc23)cc1C (stereo not drawn) [Example 54, 2-(tert-butoxy)-2-[4-(4-methoxy-3-methylphenyl)-2-methyl-1-oxo-1,2-dihydroisoquinolin-3-yl]acetic acid]	12.3 µM
Cc1ccc2c(=O)n(C)c(C(OC(C)(C)C)C(=O)O)c(-c3ccc(C)c(C)c3)c2c1 (stereo not drawn) [Example 55, 2-(tert-butoxy)-2-[4-(3,4-dimethylphenyl)-2,6-dimethyl-1-oxo-1,2-dihydroisoquinolin-3-yl]acetic acid]	2.56 µM
Cc1ccc(-c2c(C(OC(C)(C)C)C(=O)O)n(C)c(=O)c3ccc(F)cc23)cc1C (stereo not drawn) [Example 56, 2-(tert-butoxy)-2-[4-(3,4-dimethylphenyl)-6-fluoro-2-methyl-1-oxo-1,2-dihydroisoquinolin-3-yl]acetic acid]	1.68 µM
Cn1c(C(OC(C)(C)C)C(=O)O)c(-c2ccc3c(c2)CCCO3)c2ccc(F)cc2c1=O (stereo not drawn) [Example 57, 2-(tert-butoxy)-2-[4-(3,4-dihydro-2H-1-benzopyran-6-yl)-7-fluoro-2-methyl-1-oxo-1,2-dihydroisoquinolin-3-yl]acetic acid]	1.65 µM
Cc1ccc2c(-c3ccc4c(c3)CCCO4)c(C(OC(C)(C)C)C(=O)O)n(C)c(=O)c2c1 (stereo not drawn) [Example 58, 2-(tert-butoxy)-2-[4-(3,4-dihydro-2H-1-benzopyran-6-yl)-2,7-dimethyl-1-oxo-1,2-dihydroisoquinolin-3-yl]acetic acid]	0.37 µM
Cc1ccc(-c2c(C(OC(C)(C)C)C(=O)O)n(C)c(=O)c3c(F)cccc23)cc1C (stereo not drawn) [Example 59, 2-(tert-butoxy)-2-[4-(3,4-dimethylphenyl)-8-fluoro-2-methyl-1-oxo-1,2-dihydroisoquinolin-3-yl]acetic acid]	2.18 µM
Cc1ccc2c(-c3ccc(C)c(C)c3)c(C(OC(C)(C)C)C(=O)O)n(C)c(=O)c2c1 (stereo not drawn) [Example 60, 2-(tert-butoxy)-2-[4-(3,4-dimethylphenyl)-2,7-dimethyl-1-oxo-1,2-dihydroisoquinolin-3-yl]acetic acid]	1.29 µM
Cn1c(C(OC(C)(C)C)C(=O)O)c(-c2ccc3c(c2)OCCCO3)c2ccccc2c1=O (stereo not drawn) [Example 61, 2-(tert-butoxy)-2-[4-(3,4-dihydro-2H-1,5-benzodioxepin-7-yl)-2-methyl-1-oxo-1,2-dihydroisoquinolin-3-yl]acetic acid]	8.7 µM
Cn1c(C(OC(C)(C)C)C(=O)O)c(-c2ccc3ncccc3c2)c2ccccc2c1=O (stereo not drawn) [Example 62, 2-(tert-butoxy)-2-[2-methyl-1-oxo-4-(quinolin-6-yl)-1,2-dihydroisoquinolin-3-yl]acetic acid]	11.1 µM

SMILES	IC50
Cn1c(C(OC(C)(C)C)C(=O)O)c(-c2ccc3c(c2)CCO3)c2ccccc2c1=O (stereo not drawn) [Example 63, 2-(tert-butoxy)-2-[4-(2,3-dihydro-1-benzofuran-5-yl)-2-methyl-1-oxo-1,2-dihydroisoquinolin-3-yl]acetic acid]	1.69 µM
Cn1c(C(OC(C)(C)C)C(=O)O)c(-c2ccc3ccccc3c2)c2ccccc2c1=O (stereo not drawn) [Example 64, 2-(tert-butoxy)-2-[2-methyl-4-(naphthalen-2-yl)-1-oxo-1,2-dihydroisoquinolin-3-yl]acetic acid]	8.7 µM
CCn1c(C(OC(C)(C)C)C(=O)O)c(-c2ccc3c(c2)CCCO3)c2ccccc2c1=O (stereo not drawn) [Example 65, 2-(tert-butoxy)-2-[4-(3,4-dihydro-2H-1-benzopyran-6-yl)-2-ethyl-1-oxo-1,2-dihydroisoquinolin-3-yl]acetic acid]	1.46 µM
Cc1cc(-c2c(C(OC(C)(C)C)C(=O)O)n(C)c(=O)c3ccccc23)cc(C)c1Cl (stereo not drawn) [Example 66, 2-(tert-butoxy)-2-[4-(4-chloro-3,5-dimethylphenyl)-2-methyl-1-oxo-1,2-dihydroisoquinolin-3-yl]acetic acid]	3.6 µM
Cc1ccc2c(-c3ccc4c(c3C)CCCO4)c(C(OC(C)(C)C)C(=O)O)n(C)c(=O)c2c1 (stereo not drawn) [Example 67, 2-(tert-butoxy)-2-[2,7-dimethyl-4-(5-methyl-3,4-dihydro-2H-1-benzopyran-6-yl)-1-oxo-1,2-dihydroisoquinolin-3-yl]acetic acid]	0.12 µM
Cn1c(C(OC(C)(C)C)C(=O)O)c(-c2ccc3c(c2)CCCO3)c2ccc(Cl)cc2c1=O (stereo not drawn) [Example 68, 2-(tert-butoxy)-2-[7-chloro-4-(3,4-dihydro-2H-1-benzopyran-6-yl)-2-methyl-1-oxo-1,2-dihydroisoquinolin-3-yl]acetic acid]	2.45 µM
Cc1c(-c2c(C(OC(C)(C)C)C(=O)O)n(C)c(=O)c3ccc(F)cc23)ccc2c1CCCO2 (stereo not drawn) [Example 69, 2-(tert-butoxy)-2-[6-fluoro-2-methyl-4-(5-methyl-3,4-dihydro-2H-1-benzopyran-6-yl)-1-oxo-1,2-dihydroisoquinolin-3-yl]acetic acid]	0.57 µM
Cc1c(-c2c(C(OC(C)(C)C)C(=O)O)n(C)c(=O)c3ccccc23)cc(Cl)c2c1CCCO2 (stereo not drawn) [Example 70, 2-(tert-butoxy)-2-[4-(8-chloro-5-methyl-3,4-dihydro-2H-1-benzopyran-6-yl)-2-methyl-1-oxo-1,2-dihydroisoquinolin-3-yl]acetic acid]	1.23 µM
Cc1ccccc1-c1c(C(OC(C)(C)C)C(=O)O)n(C)c(=O)c2ccccc12 (stereo not drawn) [Example 71, 2-(tert-butoxy)-2-[2-methyl-4-(2-methylphenyl)-1-oxo-1,2-dihydroisoquinolin-3-yl]acetic acid]	1.45 µM
COc1ccc2c(-c3ccc4c(c3)CCCO4)c(C(OC(C)(C)C)C(=O)O)n(C)c(=O)c2c1 (stereo not drawn) [Example 72, 2-(tert-butoxy)-2-[4-(3,4-dihydro-2H-1-benzopyran-6-yl)-7-methoxy-2-methyl-1-oxo-1,2-dihydroisoquinolin-3-yl]acetic acid]	0.4 µM
Cc1c(-c2c(C(OC(C)(C)C)C(=O)O)n(C)c(=O)c3cc(F)ccc23)ccc2c1CCCO2 (stereo not drawn) [Example 75, 2-(tert-butoxy)-2-[7-fluoro-2-methyl-4-(5-methyl-3,4-dihydro-2H-1-benzopyran-6-yl)-1-oxo-1,2-dihydroisoquinolin-3-yl]acetic acid]	0.39 µM
COc1ccc2c(-c3ccc4c(c3C)CCCO4)c(C(OC(C)(C)C)C(=O)O)n(C)c(=O)c2c1 (stereo not drawn) [Example 76, 2-(tert-butoxy)-2-[7-methoxy-2-methyl-4-(5-methyl-3,4-dihydro-2H-1-benzopyran-6-yl)-1-oxo-1,2-dihydroisoquinolin-3-yl]acetic acid]	0.12 µM
CCn1c(C(OC(C)(C)C)C(=O)O)c(-c2ccc3c(c2C)CCCO3)c2ccccc2c1=O (stereo not drawn) [Example 77, 2-(tert-butoxy)-2-[2-ethyl-4-(5-methyl-3,4-dihydro-2H-1-benzopyran-6-yl)-1-oxo-1,2-dihydroisoquinolin-3-yl]acetic acid]	0.49 µM
Cn1c(C(OC(C)(C)C)C(=O)O)c(-c2ccc3c(c2)CCC(C)(C)O3)c2ccccc2c1=O (stereo not drawn) [Example 78, 2-(tert-butoxy)-2-[4-(2,2-dimethyl-3,4-dihydro-2H-1-benzopyran-6-yl)-2-methyl-1-oxo-1,2-dihydroisoquinolin-3-yl]acetic acid]	41.6 µM
Cc1c(-c2c(C(OC(C)(C)C)C(=O)O)n(C)c(=O)c3cc(Cl)ccc23)ccc2c1CCCO2 (stereo not drawn) [Example 79, 2-(tert-butoxy)-2-[7-chloro-2-methyl-4-(5-methyl-3,4-dihydro-2H-1-benzopyran-6-yl)-1-oxo-1,2-dihydroisoquinolin-3-yl]acetic acid]	0.2 µM
CC(=O)N1CCc2ccc(-c3c(C(OC(C)(C)C)C(=O)O)n(C)c(=O)c4ccccc34)cc2C1 (stereo not drawn) [Example 80, 2-[4-(2-acetyl-1,2,3,4-tetrahydroisoquinolin-7-yl)-2-methyl-1-oxo-1,2-dihydroisoquinolin-3-yl]-2-(tert-butoxy)acetic acid]	50 µM
